In patent publication EP1213282A1, “Substituted imidazolium salts and their use for the inhibition of protein ageing” (ALTEON Inc., priority 1996, dated 1997):
Like-named read-outs stand apart in the source and are kept apart here.

Experiments:
[1] = biological target: T1, AGE-BSA previously crosslinked to the collagen (Bos taurus, UniProt P02769); assay: AGE cross-link breaking sandwich enzyme immunoassay (Example 6); type: biochemical; settings: 10 mM, 16 hours, 37°C
T1 construct: purchased Calbiochem (BSA Type V); Collaborative Biomedical Products (Biocoat collagen plates)
T1 sequence (P02769 25-607): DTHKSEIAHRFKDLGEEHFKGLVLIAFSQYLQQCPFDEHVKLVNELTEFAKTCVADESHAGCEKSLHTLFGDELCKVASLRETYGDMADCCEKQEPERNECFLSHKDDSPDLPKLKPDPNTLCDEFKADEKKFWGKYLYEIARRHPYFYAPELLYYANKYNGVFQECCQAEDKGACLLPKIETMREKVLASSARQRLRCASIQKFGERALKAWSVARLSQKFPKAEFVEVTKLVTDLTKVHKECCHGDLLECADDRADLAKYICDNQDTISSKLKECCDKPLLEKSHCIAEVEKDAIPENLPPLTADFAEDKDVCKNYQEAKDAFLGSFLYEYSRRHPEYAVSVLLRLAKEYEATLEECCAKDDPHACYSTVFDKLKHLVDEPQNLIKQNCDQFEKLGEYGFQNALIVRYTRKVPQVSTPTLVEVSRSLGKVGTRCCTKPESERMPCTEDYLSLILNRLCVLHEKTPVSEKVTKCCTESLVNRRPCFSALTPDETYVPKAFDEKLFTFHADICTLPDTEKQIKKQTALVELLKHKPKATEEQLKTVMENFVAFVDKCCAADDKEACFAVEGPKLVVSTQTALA
T1 sequence (P02454 152-1207 partner limits assumed): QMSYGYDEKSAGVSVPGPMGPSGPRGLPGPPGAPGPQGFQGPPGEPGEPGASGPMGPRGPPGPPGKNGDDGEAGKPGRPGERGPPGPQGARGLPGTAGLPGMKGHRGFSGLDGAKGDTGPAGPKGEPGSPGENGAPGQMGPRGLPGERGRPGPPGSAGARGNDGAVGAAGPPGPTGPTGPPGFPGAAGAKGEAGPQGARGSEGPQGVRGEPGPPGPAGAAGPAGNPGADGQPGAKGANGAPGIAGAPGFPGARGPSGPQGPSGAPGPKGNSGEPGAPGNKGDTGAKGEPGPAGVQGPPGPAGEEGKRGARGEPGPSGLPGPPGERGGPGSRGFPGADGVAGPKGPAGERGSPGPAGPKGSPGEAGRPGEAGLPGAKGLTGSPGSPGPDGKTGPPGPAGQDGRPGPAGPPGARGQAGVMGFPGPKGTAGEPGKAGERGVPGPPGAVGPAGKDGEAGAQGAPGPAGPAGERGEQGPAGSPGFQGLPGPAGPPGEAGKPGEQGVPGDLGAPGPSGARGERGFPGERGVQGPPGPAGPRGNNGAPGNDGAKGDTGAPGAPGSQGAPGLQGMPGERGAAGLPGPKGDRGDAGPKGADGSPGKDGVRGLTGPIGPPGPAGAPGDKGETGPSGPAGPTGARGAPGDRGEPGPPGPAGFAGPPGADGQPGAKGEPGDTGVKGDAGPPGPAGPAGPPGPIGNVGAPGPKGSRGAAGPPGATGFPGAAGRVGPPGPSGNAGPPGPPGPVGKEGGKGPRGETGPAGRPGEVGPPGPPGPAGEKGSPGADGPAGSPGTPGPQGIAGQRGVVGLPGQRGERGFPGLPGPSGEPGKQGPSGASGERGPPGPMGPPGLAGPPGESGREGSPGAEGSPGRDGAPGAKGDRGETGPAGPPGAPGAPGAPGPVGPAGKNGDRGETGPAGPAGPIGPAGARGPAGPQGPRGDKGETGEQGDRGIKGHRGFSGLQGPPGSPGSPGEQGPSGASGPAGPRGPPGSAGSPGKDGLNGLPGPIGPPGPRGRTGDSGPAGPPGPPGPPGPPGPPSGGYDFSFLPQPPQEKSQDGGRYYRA
T1 sequence (P02466 86-1125 partner limits assumed): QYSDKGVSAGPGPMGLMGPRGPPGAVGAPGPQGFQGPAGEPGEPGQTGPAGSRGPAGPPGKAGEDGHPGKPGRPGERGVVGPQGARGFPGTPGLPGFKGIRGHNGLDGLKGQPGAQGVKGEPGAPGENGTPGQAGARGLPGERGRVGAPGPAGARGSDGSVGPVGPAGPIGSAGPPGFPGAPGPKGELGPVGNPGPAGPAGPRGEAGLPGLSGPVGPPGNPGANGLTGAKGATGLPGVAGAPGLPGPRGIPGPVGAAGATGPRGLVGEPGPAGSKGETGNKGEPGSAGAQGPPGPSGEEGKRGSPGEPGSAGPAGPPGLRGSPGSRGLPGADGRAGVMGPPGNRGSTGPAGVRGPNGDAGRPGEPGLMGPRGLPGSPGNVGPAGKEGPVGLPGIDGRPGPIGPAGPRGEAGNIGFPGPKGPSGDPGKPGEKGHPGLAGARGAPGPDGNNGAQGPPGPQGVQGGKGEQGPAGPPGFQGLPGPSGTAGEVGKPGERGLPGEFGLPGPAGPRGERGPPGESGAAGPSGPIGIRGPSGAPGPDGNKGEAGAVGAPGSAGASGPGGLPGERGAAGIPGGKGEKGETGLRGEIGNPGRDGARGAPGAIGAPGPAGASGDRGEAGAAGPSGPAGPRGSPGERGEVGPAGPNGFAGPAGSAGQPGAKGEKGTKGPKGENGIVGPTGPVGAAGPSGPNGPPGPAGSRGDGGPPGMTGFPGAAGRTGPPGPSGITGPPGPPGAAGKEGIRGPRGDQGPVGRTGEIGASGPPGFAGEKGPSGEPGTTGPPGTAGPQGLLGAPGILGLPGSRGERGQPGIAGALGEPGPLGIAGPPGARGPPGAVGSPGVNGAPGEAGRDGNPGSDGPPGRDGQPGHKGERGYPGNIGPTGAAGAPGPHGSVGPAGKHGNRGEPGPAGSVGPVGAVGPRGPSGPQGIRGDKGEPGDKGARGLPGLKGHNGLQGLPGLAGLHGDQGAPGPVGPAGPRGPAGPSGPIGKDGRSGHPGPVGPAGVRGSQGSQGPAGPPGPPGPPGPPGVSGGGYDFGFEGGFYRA
Experimental: In order to ascertain the ability of the compounds of the instant invention to "break" or reverse already formed advanced glycosylation endproducts, a novel sandwich enzyme immunoassay was developed which detects breaking of AGE (Advanced glycosylation endproduct) moieties from AGE-crosslinked protein. The assay utilizes collagen-coated 96 well microtiter plates that are obtained commercially. AGE-modified protein (AGE-BSA), prepared, for instance, as in Example 8, above, is incubated on the collagen-coated wells for four hours, is washed off the wells with PBS-Tween and solutions of the test compounds are added. Following an incubation period of 16 hours (37°C) cross-link-breaking is detected using an antibody raised against AGE-ribonuclease or with an antibody against BSA. Positive results in this assay indicate compounds that are capable of reducing the amount of AGE-BSA previously crosslinked to the collagen by breaking the crosslinks and allowing the liberated material to be flushed away in subsequent washing steps. Details of the assay are as follows:
• 1. AGE-BSA stock solutions were prepared as follows. Sodium phosphate buffer (0.4 M) was prepared by dissolving 6 grams of monobasic sodium phosphate in 100 ml of distilled water, 7 grams of dibasic sodium phosphate (0.4 M) in 100 ml of distilled water and adjusting the pH of the dibasic solution to 7.4 with the monobasic solution. Sodium azide (0.02 grams) was added per 100 ml volume to inhibit bacterial growth. The BSA solution was prepared as follows: 400 mg of Type V BSA (bovine serum albumin) was added for each ml of sodium phosphate buffer (above). A 400 mM glucose solution was prepared by dissolving 7.2 grams of dextrose in 100 ml of sodium phosphate buffer (above). The BSA and glucose solutions were mixed 1:1 and incubated at 37°C for 12 weeks. The pH of the incubation mixture was monitored weekly and adjusted to pH 7.4 if necessary. After 12 weeks, the AGE-BSA solution was dialyzed against PBS for 48 hours with four buffer changes, each at a 1:500 ratio of solution to dialysis buffer. Protein concentration was determined by the micro-Lowry method. The AGE-BSA stock solution was aliquoted and stored at -20°C. Dilute solutions of AGE-BSA were unstable when stored at -20°C. • 2. Working solutions for crosslinking and breaking studies were prepared as follows. Test compounds were dissolved in PBS and the pH was adjusted to pH 7.4 if necessary. AGE-BSA stock solution was diluted in PBS to measure maximum crosslinking. The concentration of AGE-BSA necessary to achieve the optimum sensitivity was determined by initial titration of each lot of AGE-BSA. • 3. Wash buffer ("PBS-Tween") was prepared as follows. PBS was prepared by dissolving the following salts in one liter of distilled water: NaCl, 8 grams; KCl, 0.2 gram, KH2PO4. 1.15 grams; NaN3, 0.2 gram. Tween-20 was added to a final concentration of 0.05% (vol/vol). • 4. Substrates for detection of secondary antibody binding were prepared by diluting the HRP substrate buffer 1:10 in distilled water and mixing with ABTS chromogen 1:50 just prior to use.
• 1. Biocoat plates were blocked with 300 µl of "Superbloc". Plates were blocked for one hour at room temperature and were washed with PBS-Tween three times with the Dynatech platewasher before addition of test reagents. • 2. Each experiment was set up in the following manner. The first three wells of the Biocoat plate were used for the reagent blank. Fifty microliters of solutions AGE-BSA were added to test wells in triplicate and only PBS in blank wells. The plate was incubated at 37°C for four hours and washed with PBS-Tween three times. Fifty microliters of PBS was added to the control wells and 50 µl of the test "AGE Cross-link breaker" compound was added to the test wells and blank. The plate was incubated overnight (approximately 16 hours) with the test "AGE Cross-link breaker" compound, followed by washing in PBS-Tween before addition of primary antibody (below). • 3. […]

[2] = biological target: T2, cross-linking of glycated bovine serum albumin (AGE-BSA) to the rat tail tendon collagen (Bos taurus, UniProt P02769); assay: Inhibition of cross-linking of glycated BSA (AGE-BSA) to collagen-coated plate, ELISA (Example 4); type: biochemical; settings: for inhibition at 10000 µM: 4 h
T2 construct: The AGE-BSA was prepared by incubating BSA at a concentration of 200 mg per ml with 200 mM glucose
T2 sequence (P02769 25-607): as the sequence (P02769 25-607) above
Experimental: The following method was used to evaluate the ability of the compounds of the present invention to inhibit the cross-linking of glycated bovine serum albumin (AGE-BSA) to the rat tail tendon collagen coated 96-well plate.
The glycated BSA was then extensively dialyzed against phosphate buffer solution (PBS) for 48 hours with additional 5 times buffer exchanges. […] The blocking solution was removed from the wells by washing the plate twice with PAS-Tween 20 solution (0.05% Tween 20) using a NUNC-multiprobe or Dynatech ELISA-plate washer. […] The unbrowned BSA in PBS buffer with or without testing compound were added to the separate wells as the blanks. The uncross-linked AGE-BSA was then removed by washing the wells three times with PBS-Tween buffer. The cross-linked AGE-BSA to the tail tendon coated plate was then quantitated by the polyclonal antibody raised against AGE-RNase. After a one-hour incubation period, AGE antibody was removed by washing 4 times with PBS-Tween.
The bound AGE antibody was then detected with the addition of horseradish peroxidase-conjugated secondary antibody, e.g., goat anti-rabbit immunoglobulin and incubation for 30 minutes. […] The reaction was allowed for an additional 15 minutes and the absorbance was read at 410 nm in a Dynatech plate reader.

[3] = Inhibition of ribose-induced cross-linking of N-acetyl glycyl-lysine methyl ester, fluorescence (Example 5); type: biochemical; settings: 37°C, 16-24 hours, pH 7.4; fluorescence 350/400 nm
Experimental: Materials: • N-acetylglycyllysine methyl ester (DP in formula below) • Ribose (R in formula below) • Test compounds (C in formula below)
Reagents: • 0.5 M sodium phosphate buffer pH 7.4 • N-acetylglycyllysine methyl ester in 0.5M sodium phosphate buffer, pH 7.4 Ribose: 800 mM
Test compounds dissolved in the above buffer and the pH is adjusted to 7.4, if necessary
Reaction mixtures are prepared as follows:
and incubated at 37°C for 16-24 hours. At the end of the incubation period, the fluorescence is read using an excitation wavelength of 350 nm and emission wavelength of 400 nm. The inhibition of the cross-linking is calculated from the decrease in the fluorescence in the presence of the test compounds according to the formula: […] [formula]
The Inhibition by various test compounds (IC50) is as follows: […]

[4] = test system: fixed protein (gelatin. i.e., collagen) surface; assay: Surface browning experiment on gelatin/paper disks (Example 10); settings: 100 Mm glucose-6-phosphate, one week at 50°C; Peridex at final 0.04% chlorhexidine
Experimental: To further study the ability of inhibitors of nonenzymatic browning to prevent the discoloration of protein on a surface, such as that which occurs on the tooth surface, the following surface browning experiment is performed. As a substitute for a pellicle-covered tooth surface. unexposed and developed photographic paper is used to provide a fixed protein (gelatin. i.e., collagen) surface on a paper backing. Five millimeter circles are punched and immersed for one week at 50°C in a solution of 100 Mm glucose-6-phosphate in a 0.5 M phosphate buffer, pH 7.4, containing 3 Mm sodium azide. Glucose-6-phosphate is a sugar capable of participating in nonenzymatic browning at a more rapid rate than glucose. In addition to the glucose-6-phosphate, chlorhexidine and/or a compound of Formula I are included. After incubation, the gelatin/paper disks are rinsed with water, observed for brown color, and photographed.

[5] = primary antibody anti-AGE-RNase, read-out: %breaking allowed, Pr AbαAGE
[6] = primary antibody anti-BSA, read-out: %breaking allowed, PrAbαBSA
[7] = pH 7.4, at 10 mM, 37°C, 4 hours, pH 7.4, read-out: %Inh.

Structure (SMILES) | inhibition at 10000 µM [1, 5] [%] | inhibition at 10000 µM [1, 6] [%] | inhibition at 10000 µM [2, 7] [%] | also measured
COc1cccc(C(=O)C[n+]2ccn(C)c2)c1 [1-methyl-3-[2-(3'-methoxyphenyl)-2-oxoethyl]-imidazolium bromide] | 20 | 24 |  | 
CCOC(=O)CCCCCn1cc[n+](CC(=O)c2ccc(C)cc2)c1 [1-(ethoxycarbonylpentyl)-3-[2-(4'-methylphenyl)-2-oxoethyl]-imidazolium bromide] |  |  | 33 | 
COc1ccc(C(=O)C[n+]2ccn(C)c2)cc1 [1-methyl-3-[2-(4'-methoxyphenyl)-2-oxoethyl]-imidazolium bromide] | 38 | 27 |  | 
Cn1cc[n+](CC(=O)c2ccc(Br)cc2)c1 [1-methyl-3-[2-(4'-bromophenyl)-2-oxoethyl]-imidazolium bromide] |  |  |  | inhibition at 10000 µM ([2]; pH 7.4, read-out: %Inh.): 23%
CCOC(=O)CCCCCn1cc[n+](CC(=O)c2ccc(OC)cc2)c1 [1-(ethoxycarbonylpentyl)-3-[2-(4'-methoxyphenyl)-2-oxoethyl]-imidazolium bromide] |  |  | 23 | %Inh. ([2]; at 10 mM, 37°C, 4 hours, pH 7.4, 240 min, 10000 µM): 40%
CCN(CC)c1ccc(C(=O)C[n+]2ccn(C)c2)cc1 [1-Methyl-3-[2-(4'-diethylaminophenyl)-2-oxo-ethyl]-imidazolium bromide] | 32 | 28 |  | IC50 [3]: 530 µM
[H]/N=C(\N/C(=N/[H])NCCCCCCNC(=N)NC(=N)Nc1ccc(Cl)cc1)Nc1ccc(Cl)cc1 [chlorhexidine] |  |  |  | brown color of gelatin/paper disks [4]: significant browning
Cn1cc[n+](CC(=O)c2ccc(F)cc2)c1 [1-methyl-3-[2-(4'-fluorophenyl)-2-oxoethyl]-imidazolium bromide] |  |  | 29 | 
CCOC(=O)CCCCCn1cc[n+](CC(=O)c2cccc(OC)c2)c1 [1-(ethoxycarbonylpentyl)-3-[2-(3'-methoxyphenyl)-2-oxoethyl]-imidazolium bromide] |  |  | 40 | 
